Measured values reported in paper PMC5566973 (Frontiers in Pharmacology, 2017).

What was measured:
human BCRP = biological target: T1, human BCRP (Homo sapiens, UniProt Q9UNQ0); assay: Vesicular transport assay, Sf9 membrane vesicles expressing human BCRP; type: in vitro ADME; details: 10 μM, MgATP vs MgAMP
T1 construct: purchased GenoMembrane (Kanagawa, Japan); host or cells: Sf9
T1 sequence (Q9UNQ0 1-655): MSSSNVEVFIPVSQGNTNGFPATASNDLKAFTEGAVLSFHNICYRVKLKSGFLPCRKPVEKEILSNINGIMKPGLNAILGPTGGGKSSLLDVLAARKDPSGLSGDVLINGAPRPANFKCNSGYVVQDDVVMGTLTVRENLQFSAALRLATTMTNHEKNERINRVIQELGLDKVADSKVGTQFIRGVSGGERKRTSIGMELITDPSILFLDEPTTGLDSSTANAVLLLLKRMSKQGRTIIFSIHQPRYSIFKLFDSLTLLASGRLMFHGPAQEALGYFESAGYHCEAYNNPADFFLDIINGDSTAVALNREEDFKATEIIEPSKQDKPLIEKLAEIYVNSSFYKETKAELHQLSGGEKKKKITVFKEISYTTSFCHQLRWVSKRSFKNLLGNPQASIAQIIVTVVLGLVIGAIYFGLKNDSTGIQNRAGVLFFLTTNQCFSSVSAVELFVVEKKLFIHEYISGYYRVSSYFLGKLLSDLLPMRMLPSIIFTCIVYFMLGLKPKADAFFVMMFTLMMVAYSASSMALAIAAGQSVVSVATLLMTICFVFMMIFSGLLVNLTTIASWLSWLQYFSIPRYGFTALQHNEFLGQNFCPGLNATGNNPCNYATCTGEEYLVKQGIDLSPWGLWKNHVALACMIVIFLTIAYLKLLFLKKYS
Description: (§1) The vesicular transport assay was implemented as described in the GenoMembrane™ vesicular transport kit protocol (GenoMembrane, Kanagawa, Japan) with minor changes. Briefly, vesicle stocks were thawed and diluted with assay buffer (50 mM MOPS-Tris, 70 mM KCl, and 7.5 mM MgCl2). […] MgAMP instead of MgATP was used as a control. Apart from these, 4 mM glutathione was also included in BCRP and MRP2 assays. Transport was terminated with ice cold assay buffer, and then samples were quickly transferred to a filter plate. Wells were immediately washed 5 times with 200 μL assay buffer and dried. The vesicles on the plate were dissolved in 50 μL of 80% methanol and centrifuged at 2,000 rpm for 2 min after collection, and repeating the above procedures. Mixed the two filtrates together and added the pre-cooled methanol. After centrifugation at 12,000 rpm for 5 min at 4°C, a 5 μL aliquot of supernatant was injected into the UPLC-ESI-MS/MS system for analysis. Furthermore, the uptake of NMQ (MDR1), LY (BCRP), and E217βG (MRP2) was used to evaluate the activity of specific vesicles.

[1] = Urinary and fecal excretion in rats; type: in vivo, Sprague-Dawley rats; details: for Cumulative excretion of the analyte, SUM of urine and feces: within 72 h
Description: Access to water was maintained all the time. Samples including blank urine and feces before dosing, urine and feces from 0 to 24 h, 24 to 48 h, and 48 to 72 h after dosing were collected and stored at −80°C until analysis.
Urine samples were thawed and an aliquot of 100 μL was processed for detection as described in Section Drug Analysis. Feces were homogenized and then weighed, added 6-folds of acetonitrile, extracted by ultrasonic wave for 1 h and then centrifuged. An aliquot of 100 μL was also processed for detection as described in Section Drug Analysis.

Caco-2 cell monolayers = details: transcellular flux marker; ref Shen et al., 2015; cited from earlier work
human MRP2 = biological target: T2, human MRP2 (Homo sapiens, UniProt Q92887); assay: Vesicular transport assay, Sf9 membrane vesicles expressing human MRP2; type: in vitro ADME; details: probe at 50 μM
T2 construct: purchased GenoMembrane (Kanagawa, Japan); host or cells: Sf9
Description: as §1

human MDR1 = biological target: T3, human MDR1 (Homo sapiens, UniProt P08183); assay: Vesicular transport assay, Sf9 membrane vesicles expressing human MDR1; type: in vitro ADME; details: probe at 5 μM
T3 construct: purchased GenoMembrane (Kanagawa, Japan); host or cells: Sf9
Description: as §1

[2] = after oral harmaline 40.0 mg/kg, 24 h
[3] = after oral harmaline 40.0 mg/kg, 48 h
[4] = after oral harmaline 40.0 mg/kg, 72 h
[5] = after oral harmaline 40.0 mg/kg
[6] = after oral harmine 40.0 mg/kg, 24 h
[7] = after oral harmine 40.0 mg/kg, 48 h
[8] = after oral harmine 40.0 mg/kg, 72 h

T2 sequence (Q92887 whole entry): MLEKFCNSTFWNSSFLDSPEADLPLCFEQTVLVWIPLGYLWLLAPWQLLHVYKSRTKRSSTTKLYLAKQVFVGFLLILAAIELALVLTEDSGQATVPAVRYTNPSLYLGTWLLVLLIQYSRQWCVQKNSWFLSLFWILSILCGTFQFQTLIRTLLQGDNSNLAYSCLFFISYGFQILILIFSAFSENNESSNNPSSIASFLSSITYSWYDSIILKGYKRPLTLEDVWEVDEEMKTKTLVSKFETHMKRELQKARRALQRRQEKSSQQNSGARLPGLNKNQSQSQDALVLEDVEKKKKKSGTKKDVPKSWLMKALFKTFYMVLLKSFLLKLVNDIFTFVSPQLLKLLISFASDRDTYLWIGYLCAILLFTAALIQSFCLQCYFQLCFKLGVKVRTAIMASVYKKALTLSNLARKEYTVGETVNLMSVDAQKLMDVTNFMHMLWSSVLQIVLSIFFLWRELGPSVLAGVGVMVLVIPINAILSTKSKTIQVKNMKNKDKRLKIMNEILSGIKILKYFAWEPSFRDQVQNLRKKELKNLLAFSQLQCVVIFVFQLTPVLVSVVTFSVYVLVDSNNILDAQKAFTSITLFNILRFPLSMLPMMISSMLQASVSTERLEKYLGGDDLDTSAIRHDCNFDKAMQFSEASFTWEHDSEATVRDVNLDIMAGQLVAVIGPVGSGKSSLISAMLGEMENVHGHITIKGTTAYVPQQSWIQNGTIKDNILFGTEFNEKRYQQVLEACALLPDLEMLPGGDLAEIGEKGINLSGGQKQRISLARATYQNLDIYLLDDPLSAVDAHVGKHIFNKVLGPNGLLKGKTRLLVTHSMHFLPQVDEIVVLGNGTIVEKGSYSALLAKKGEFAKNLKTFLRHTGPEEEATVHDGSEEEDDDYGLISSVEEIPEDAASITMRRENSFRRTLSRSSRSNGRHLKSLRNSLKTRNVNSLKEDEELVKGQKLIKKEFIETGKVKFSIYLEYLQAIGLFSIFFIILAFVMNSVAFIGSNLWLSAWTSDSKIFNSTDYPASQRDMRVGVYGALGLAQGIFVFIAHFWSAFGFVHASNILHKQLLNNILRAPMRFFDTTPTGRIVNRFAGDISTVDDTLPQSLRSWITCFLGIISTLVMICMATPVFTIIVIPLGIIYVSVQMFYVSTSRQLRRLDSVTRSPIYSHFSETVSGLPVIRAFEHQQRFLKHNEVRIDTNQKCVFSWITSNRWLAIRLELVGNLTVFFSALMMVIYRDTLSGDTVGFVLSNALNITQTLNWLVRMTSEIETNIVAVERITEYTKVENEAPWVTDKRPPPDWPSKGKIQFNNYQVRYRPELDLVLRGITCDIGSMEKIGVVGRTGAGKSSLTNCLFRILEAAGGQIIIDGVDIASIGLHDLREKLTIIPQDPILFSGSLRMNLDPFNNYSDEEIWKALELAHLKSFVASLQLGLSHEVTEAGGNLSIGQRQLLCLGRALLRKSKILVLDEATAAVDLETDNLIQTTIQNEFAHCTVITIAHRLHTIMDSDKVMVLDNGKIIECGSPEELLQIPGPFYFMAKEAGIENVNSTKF
T3 sequence (P08183 whole entry): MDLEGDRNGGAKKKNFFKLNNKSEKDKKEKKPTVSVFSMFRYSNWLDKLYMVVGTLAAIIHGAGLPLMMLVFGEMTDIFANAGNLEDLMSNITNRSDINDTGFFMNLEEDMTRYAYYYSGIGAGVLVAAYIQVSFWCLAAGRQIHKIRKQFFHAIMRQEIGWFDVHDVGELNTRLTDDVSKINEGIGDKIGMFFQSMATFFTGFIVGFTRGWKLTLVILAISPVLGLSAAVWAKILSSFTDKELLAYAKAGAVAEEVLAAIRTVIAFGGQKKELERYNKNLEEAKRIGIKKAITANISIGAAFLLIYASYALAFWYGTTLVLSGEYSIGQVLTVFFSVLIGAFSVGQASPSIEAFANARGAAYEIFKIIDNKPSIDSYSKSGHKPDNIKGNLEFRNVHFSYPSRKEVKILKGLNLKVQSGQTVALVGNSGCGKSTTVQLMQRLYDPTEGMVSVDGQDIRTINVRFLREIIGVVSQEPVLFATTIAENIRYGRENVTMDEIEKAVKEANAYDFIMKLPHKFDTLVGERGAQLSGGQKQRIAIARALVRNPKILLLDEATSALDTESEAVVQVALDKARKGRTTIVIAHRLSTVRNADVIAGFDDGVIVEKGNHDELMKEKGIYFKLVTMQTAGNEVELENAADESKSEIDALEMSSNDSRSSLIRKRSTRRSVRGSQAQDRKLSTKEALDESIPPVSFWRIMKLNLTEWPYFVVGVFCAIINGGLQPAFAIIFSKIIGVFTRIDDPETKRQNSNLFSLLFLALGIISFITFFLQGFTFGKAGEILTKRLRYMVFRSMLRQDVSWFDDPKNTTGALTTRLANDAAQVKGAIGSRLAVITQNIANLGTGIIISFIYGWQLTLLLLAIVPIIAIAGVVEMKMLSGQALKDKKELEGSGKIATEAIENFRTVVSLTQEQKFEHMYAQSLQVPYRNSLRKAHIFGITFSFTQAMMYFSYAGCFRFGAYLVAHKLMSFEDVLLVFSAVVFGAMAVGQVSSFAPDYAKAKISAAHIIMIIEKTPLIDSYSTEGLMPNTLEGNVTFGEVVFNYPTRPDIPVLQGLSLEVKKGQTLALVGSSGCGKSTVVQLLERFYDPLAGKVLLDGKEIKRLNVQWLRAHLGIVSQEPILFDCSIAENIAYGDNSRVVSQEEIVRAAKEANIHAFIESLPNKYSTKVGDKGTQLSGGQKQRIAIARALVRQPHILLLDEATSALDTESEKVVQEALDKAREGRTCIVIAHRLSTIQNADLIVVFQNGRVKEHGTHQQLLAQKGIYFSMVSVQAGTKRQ

| Compound | Cumulative excretion in feces (%) of the analyte [1, 2] | Cumulative excretion in urine (%) of the analyte [1, 2] | Cumulative excretion in feces (%) of the analyte [1, 3] | Cumulative excretion in urine (%) of the analyte [1, 3] | Cumulative excretion in feces (%) of the analyte [1, 4] | Cumulative excretion in urine (%) of the analyte [1, 4] | Cumulative excretion of the analyte, SUM of urine and feces [1, 5] | other results |
| --- | --- | --- | --- | --- | --- | --- | --- | --- |
| lucifer yellow [LY, reference compound] |  |  |  |  |  |  |  | uptake ratio (UR) (human BCRP): 19.66 |
| Cc1[nH]ccc2c1[nH]c1cc(=O)ccc12 [Harmol] | 1.24 ± 0.51% | 0.23 ± 0.42% | 1.64 ± 0.73% | 0.50 ± 0.55% | 1.70 ± 0.75% | 0.65 ± 0.56% | 2.35 ± 0.91% | Cumulative excretion in feces (%) of the analyte [1, 6]: 5.66 ± 2.96%; Cumulative excretion in urine (%) of the analyte [1, 6]: 2.51 ± 2.82%; Cumulative excretion in feces (%) of the analyte [1, 7]: 7.69 ± 3.33%; Cumulative excretion in urine (%) of the analyte [1, 7]: 4.63 ± 4.53%; Cumulative excretion in feces (%) of the analyte [1, 8]: 8.38 ± 3.47%; Cumulative excretion in urine (%) of the analyte [1, 8]: 5.42 ± 5.19%; Cumulative excretion of the analyte, SUM of urine and feces ([1]; after oral harmine 40.0 mg/kg): 13.80 ± 5.71% |
| CC(C)NCC(O)COc1cccc2ccccc12 (stereo not shown) [propranolol, reference compound] |  |  |  |  |  |  |  | PappAB (Caco-2 cell monolayers): 41.90 ± 3.30 × 10^−6 cm/s |
| C[C@]12CC[C@@H]3c4ccc(O)cc4CC[C@H]3[C@@H]1CC[C@@H]2O[C@@H]1O[C@H](C(=O)O)[C@@H](O)[C@H](O)[C@H]1O [E217βG, estradiol-17 β-glucuronide, reference compound] |  |  |  |  |  |  |  | uptake ratio (UR) (human MRP2): 7.71 |
| C=C[C@H]1C[N+]2(C)CC[C@H]1C[C@@H]2[C@@H](O)c1ccnc2ccc(OC)cc12 [NMQ, N-methylquinidine, reference compound] |  |  |  |  |  |  |  | uptake ratio (UR) (human MDR1): 2.05 |
| CC1=NCCc2c1[nH]c1cc(O)ccc21 [Harmalol] | 1.73 ± 1.01% | 1.16 ± 0.81% | 1.87 ± 1.04% | 2.03 ± 2.12% | 1.89 ± 1.04% | 2.30 ± 2.36% | 4.18 ± 2.67% |  |
